Assay results from ChEMBL document CHEMBL1212877, “Multipotent drugs with cholinergic and neuroprotective properties for the treatment of Alzheimer and neuronal vascular diseases. I. Synthesis, biological assessment, and molecular modeling of simple and readily available 2-aminopyridine-, and 2-chloropyridine-3,5-dicarbonitriles” (Bioorg Med Chem, 2010).
Where “and” joins values, the source holds several entries; their conditions need not be identical. Equal entries are not always repeated.

Assays:
[1] = target: T1, Acetylcholinesterase (Electrophorus electricus, UniProt O42275); test: Inhibition of Electrophorus electricus AChE after 10 mins by Ellman's method
[2] = tested on: SH-SY5Y; test: Neuroprotective activity in human SH-SY5Y cells assessed as protection against rotenone/oligomycin-A-induced cell death at 1 uM after 24 hrs by MTT assay relative to control; format: functional
[3] = tested on: SH-SY5Y; test: Neuroprotective activity in human SH-SY5Y cells assessed as protection against rotenone/oligomycin-A-induced cell death at 1 uM after 24 hrs by LDH release assay relative to control; format: functional
[4] = target: Butyrylcholinesterase (Equus caballus, UniProt Q9N1N9); test: Inhibition of equine serum BuChE after 10 mins by Ellman's method
[5] = target: T1, Acetylcholinesterase; test: Non competitive inhibition of Electrophorus electricus AChE by Lineweaver-Burke plot analysis
[6] = target: T1, Acetylcholinesterase; test: Binding affinity to Electrophorus electricus AChE peripheral anionic site

Chain of Butyrylcholinesterase (Q9N1N9 whole entry): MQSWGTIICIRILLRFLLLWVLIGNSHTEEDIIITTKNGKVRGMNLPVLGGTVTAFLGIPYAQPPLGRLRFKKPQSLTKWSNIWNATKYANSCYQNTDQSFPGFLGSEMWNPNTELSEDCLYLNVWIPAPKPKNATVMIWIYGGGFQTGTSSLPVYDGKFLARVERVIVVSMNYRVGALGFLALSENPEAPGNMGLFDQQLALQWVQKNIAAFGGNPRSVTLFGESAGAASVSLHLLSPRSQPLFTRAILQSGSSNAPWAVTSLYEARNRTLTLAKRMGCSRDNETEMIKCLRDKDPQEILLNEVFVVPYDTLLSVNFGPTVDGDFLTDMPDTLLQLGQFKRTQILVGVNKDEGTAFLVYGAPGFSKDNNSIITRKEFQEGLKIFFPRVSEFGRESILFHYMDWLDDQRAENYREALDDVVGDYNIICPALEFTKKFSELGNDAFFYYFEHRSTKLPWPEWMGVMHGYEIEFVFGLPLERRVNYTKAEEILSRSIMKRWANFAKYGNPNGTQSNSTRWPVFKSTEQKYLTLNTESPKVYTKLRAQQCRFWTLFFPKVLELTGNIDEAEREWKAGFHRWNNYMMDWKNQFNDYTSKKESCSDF
T1 sequence (O42275 whole entry): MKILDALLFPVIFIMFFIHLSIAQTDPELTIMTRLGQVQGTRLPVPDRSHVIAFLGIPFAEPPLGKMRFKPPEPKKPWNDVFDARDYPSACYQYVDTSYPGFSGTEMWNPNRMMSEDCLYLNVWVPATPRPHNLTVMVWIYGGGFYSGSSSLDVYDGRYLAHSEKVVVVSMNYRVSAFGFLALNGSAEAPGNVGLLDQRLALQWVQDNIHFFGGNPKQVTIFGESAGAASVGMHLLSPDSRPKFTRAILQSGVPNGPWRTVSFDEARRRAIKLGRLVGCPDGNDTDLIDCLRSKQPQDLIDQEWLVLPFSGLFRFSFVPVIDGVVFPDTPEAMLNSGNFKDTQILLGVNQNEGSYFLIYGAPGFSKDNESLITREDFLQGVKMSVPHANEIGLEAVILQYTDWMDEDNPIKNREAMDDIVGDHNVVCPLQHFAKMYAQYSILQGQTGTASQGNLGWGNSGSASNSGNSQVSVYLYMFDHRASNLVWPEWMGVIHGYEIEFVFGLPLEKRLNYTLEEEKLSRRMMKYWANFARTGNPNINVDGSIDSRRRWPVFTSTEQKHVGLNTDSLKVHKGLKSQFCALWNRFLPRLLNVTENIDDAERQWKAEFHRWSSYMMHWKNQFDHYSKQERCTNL

Row | SMILES | IC50 [1] [µM] | Activity [2] [%] | Activity [3] [%] | IC50 [4] [µM] | Ki [5] [µM] | Ki [6]
1 | CN(C)c1nc(N)c(C#N)cc1C#N | 22.7 | 12.9 | 36.2 | > 100 | – | –
2 | N#Cc1cc(C#N)c(N2CCCC2)nc1N | 3.5 | 20.1 | – | > 100 | – | –
3 | N#Cc1cc(C#N)c(N2CCCCC2)nc1N | > 100 | 10.2 | 14.8 | 26 | – | –
4 | N#Cc1cc(C#N)c(N2C3CCC2CC3)nc1N | > 100 | 0 | – | > 100 | – | –
5 | N#Cc1cc(C#N)c(N2CCC(O)CC2)nc1N | > 100 | 3 | 15.1 | > 100 | – | –
6 | N#Cc1cc(C#N)c(NCCO)nc1N | > 100 | 21.4 | 3 | > 100 | – | –
7 | C#CCNc1nc(N)c(C#N)cc1C#N | > 100 | 17.7 | – | > 100 | – | –
8 | N#Cc1cc(C#N)c(N2CCC(Cc3ccccc3)CC2)nc1N | > 100 | 19.1 | – | > 100 | – | –
9 | CN(C)c1nc(N)c(C#N)c(-c2ccccc2)c1C#N | > 100 | 0 | – | > 100 | – | –
10 | N#Cc1c(N)nc(N2CCCCC2)c(C#N)c1-c1ccccc1 | > 100 | 2.7 | 10.7 | > 100 | – | –
11 | N#Cc1c(N)nc(N2C3CCC2CC3)c(C#N)c1-c1ccccc1 | > 100 | 0.7 | – | 3.8 | – | –
12 | N#Cc1c(N)nc(NCc2ccccc2)c(C#N)c1-c1ccccc1 | > 100 | 10.6 | – | > 100 | – | –
13 | COc1nc(N)c(C#N)cc1C#N | > 100 | 11 | – | > 100 | – | –
14 | CCOc1nc(N)c(C#N)cc1C#N | > 100 | 32.9 | 10.9 | > 100 | – | –
15 | N#Cc1cc(C#N)c(OCCCc2ccccc2)nc1N | > 100 | 0 | – | > 100 | – | –
16 | N#Cc1c(N)nc(S)c(C#N)c1-c1ccccc1 | > 100 | 5.8 | 14.1 | > 100 | – | –
17 | CN(C)c1nc(Cl)c(C#N)cc1C#N | 5 | 6 | – | > 100 | – | –
18 | N#Cc1cc(C#N)c(N2CCCC2)nc1Cl | 0.8 | 7.5 | 32 | > 100 | – | –
19 | N#Cc1cc(C#N)c(N2CCCCC2)nc1Cl | 9.5 | 14.7 | – | > 100 | 17.2 | –
20 | N#Cc1cc(C#N)c(N2C3CCC2CC3)nc1Cl | 75 | 7.5 | 31.6 | 24 | – | –
21 | CN(C)c1nc(Cl)c(C#N)c(-c2ccccc2)c1C#N | 10 | 0 | – | > 100 | – | –
22 | N#Cc1c(Cl)nc(N2CCCC2)c(C#N)c1-c1ccccc1 | 5.6 | 7.5 | 37.7 | > 100 | – | –
23 | N#Cc1c(Cl)nc(N2CCCCC2)c(C#N)c1-c1ccccc1 | > 100 | 0 | – | > 100 | – | –
24 | N#Cc1c(Cl)nc(N2C3CCC2CC3)c(C#N)c1-c1ccccc1 | > 100 | 12.9 | – | > 100 | – | –
25 | N#Cc1c(N)nc(Sc2ccccc2)c(C#N)c1-c1ccccc1 | > 100 | 11.2 | 3.84 | > 100 | – | –
26 | CC[N+](C)(CC)CCC[n+]1c(-c2ccccc2)c2cc(N)ccc2c2ccc(N)cc21 [PROPIDIUM] | – | – | – | – | – | 8.6 µM and 8.9 µM
